Source: patent publication US6977270B2, “Tocotrienolquinone cyclization product with an anti-hypercholesterol effect” (BASF Aktiengesellschaft, priority 2000, dated 2005)

System: Cholesterol Synthesis in HepG2 Cells
Assay: Determination of cholesterol synthesis in HepG2 cells (14C-acetate incorporation into the non-saponifiable lipid/sterol fraction)
Format: cell-based
Settings: mean of three
Description: Determination of Cholesterol Synthesis in HepG2 Cells (cf. Fahrner, J. et al., Eur. J. Biochem. 213: 1067-1073 (1993); Gebhardt, R., Lipids 28: 613-619 (1993); Pill, J. et al., Z. Anal. Chem. 332: 512-513 (1985)
To detect an effect on cholesterol biosynthesis by test substances, HepG2 cell cultures were used. These cells were cultured up to confluence in 35 mm 6-well cell culture incubation dishes in DMEM medium (Gibco, Eggenstein, Germany) with 2 mM gentamin, 10% fetal calf serum, 40 U/ml of streptomycin and 50 U/ml of penicillin. Frozen cells were cultured and passaged for one week before use. The confluent cells were then incubated in serum-free Williams Medium E for 4 hours at 37° C. with the test substances. ^14C-Acetate (18.5 kBq/ml; 0.5 μCi/ml) was then added to the solutions. The test substances were diluted in DMSO and used at the concentrations specified. […]
Incorporation of ^14C-acetate into the non-saponifiable lipid fraction (sterol fraction) was determined by the following method: 1.4 ml of homogenates were incubated with 2.8 ml of 0.5 M KOH in EtOH with shaking for 1 hour at 70° C. […] The ^14C activity in the samples was determined, after addition of 10 ml of scintillation solution (Ultima Gold®, Packard, Merident, Conn.) in a scintillation counter. The measured values shown are to be understood as means of three independent culture dishes per test solution. […]

## CC(C)=CCC/C(C)=C/CC/C(C)=C/CC[C@]1(C)CCc2cc(O)c(C)c(C)c2O1 [R-γ-Tocotrienol]
Concentration 5×10^−6 M, relative to DMSO control (100%)
  inhibition of 14C-acetate incorporation: approximately 20%
Concentrations ≧5×10^−5 M, relative to DMSO control
  maximum significant inhibition of 14C-acetate incorporation: approximately 50%
